Measured values: patent US9358281B2, “Methods, agents and peptides for inducing an innate immune response in HIV vaccination” (New York University, priority 2009, dated 2016)
“Also recorded” adds a separate entry of the source. Like-named read-outs stand apart in the source and are kept apart here.

Key:
Format in all cases: cell-based, human
[1] = system: monocyte-derived dendritic cells (MDDC); settings: for effect on MDDC activation (CD86 in GFP+) by HIVGFP(G)+SIVVLP(G): inhibitor added within the first 24 hours of infection
naive CD4+ T cells = assay: Naive T cell proliferation assay (CFSE dilution) with infected DC and anti-CD3; settings: 25 μM AZT or 1 μM SCY
Method: Naive T cell proliferation assay: 48 h after infection, naive T cells were labeled with CFSE (eBioscience) as described previously (Antons et al., 2008). DC were infected with dilutions of SIVVLP(G) and pLaiΔEnv-GFP3(G) WT (indicated as HIVGFP(G)) or G89V. AZT was added at the time of infection and SCY was added from 3 to 8 hours after infection. 48 hours after infection, half of the DC was processed for surface staining and cytometry. The other half was washed with media and resuspended in fresh media without cytokines. 20,000 T cells were mixed with DC at a DC to T ratio of 1:5 and 1:15. Cells were stimulated by dilutions of anti-CD3 (OKT3 hybridoma supernatant, approximately 1-100 ng/ml) in a total volume of 150 to 200 μl in round bottom 96-well plates. Cells were harvested and analyzed by flow cytometry at day 4 or day 5 postactivation.

STAT1 = assay: Immunoblot of phospho-STAT1 over time in MDDC; settings: after treatment or infection
Method: (§1) Western blot analysis: Cells were lysed in 1% NP-40, 50 mM Tris pH 8, 120 mM NaC, 4 mM EDTA, 50 mM NaF, 1 mM NA3VO4 and a protease inhibitors cocktail (Roche). Total lysates were resolved on SDS-PAGE, transferred to PVDF membranes and probed with primary antibodies and corresponding HRP-conjugated secondary antibodies.
as §1, with “NaCl,” for “NaC,”, “inhibitor” for “inhibitors”, “antibodies (GE Healthcare).” for “antibodies.”

Molecule	effect on LPS- or poly(I:C)-induced CD86 up-regulation [1]	effect on MDDC activation (CD86 in GFP+) by HIVGFP(G)+SIVVLP(G) [1]	ability of treated, HIVGFP(G) and SIVVLP(G) infected DC to induce proliferation (naive CD4+ T cells)	effect on MDDC activation (CD86 in GFP+) by HIVGFP(G)+SIVVLP(G) ([1]; listed as Raltegravir)	time at which STAT1 phosphorylation was present (STAT1)
Cc1cn([C@H]2C[C@H](N=[N+]=[N-])[C@@H](CO)O2)c(=O)[nH]c1=O [AZT, Zidovudine]	had no effect	blocked activation; also recorded: inhibited transduction efficiency and MDDC activation	reduced ability to induce proliferation	–	–
Cc1nnc(C(=O)NC(C)(C)c2nc(C(=O)NCc3ccc(F)cc3)c(O)c(=O)n2C)o1 [RAL, Raltegravir]	had no effect	blocked activation	–	inhibited transduction efficiency and MDDC activation	–
lipopolysaccharide [LPS]	–	–	–	–	2 h
